Laboratory results taken from patent publication US8975264B2, “Compound acting as a cannabinoid receptor-1 inhibitor” (Amorepacific Corporation, priority 2010, dated 2015).

target: human CB1 (cannabinoid receptor 1) (Homo sapiens, UniProt P21554); assay: CB1 receptor inhibition effect: calcium ion influx assay (Fluo-4 NW) in Chem-1 cells after 1 μM R-(+)-WIN55212-2; format: cell-based; conditions: calcium ion influx in Chem-1 cells expressing human CB1, 1 μM R-(+)-WIN55212-2
Method in brief: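 Chem-1 cells stably expressing human CB1 were exposed to compound (0.5% DMSO) for 10 minutes in HBSS/HEPES/probenecid, then stimulated with 1 μM R-(+)-WIN55212-2. Fluo-4 calcium flux was recorded for 80 s. Percent inhibition was calculated from max−min RFU relative to agonist-only and blank wells.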

Sequence of human CB1 (cannabinoid receptor 1) (P21554 whole entry): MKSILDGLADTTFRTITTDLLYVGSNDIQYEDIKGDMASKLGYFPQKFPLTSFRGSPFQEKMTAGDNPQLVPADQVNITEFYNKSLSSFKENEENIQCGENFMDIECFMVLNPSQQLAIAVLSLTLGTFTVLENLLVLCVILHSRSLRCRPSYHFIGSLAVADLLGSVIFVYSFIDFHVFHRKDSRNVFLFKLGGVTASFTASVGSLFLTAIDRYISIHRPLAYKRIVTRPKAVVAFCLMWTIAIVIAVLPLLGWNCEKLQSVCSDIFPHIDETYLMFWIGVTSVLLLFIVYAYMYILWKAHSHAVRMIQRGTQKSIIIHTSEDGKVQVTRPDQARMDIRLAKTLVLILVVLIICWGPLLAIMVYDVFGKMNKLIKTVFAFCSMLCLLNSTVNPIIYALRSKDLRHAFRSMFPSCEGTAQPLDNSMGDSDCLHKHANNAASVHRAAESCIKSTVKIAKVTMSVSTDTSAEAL

Row | SMILES | IC50 [nM]
1 | Cc1ccc(-c2cnn3c(-c4ccc(F)cc4)cc(N4CCC[C@H]4CO)nc23)cc1 [Example 269, (S)-(1-(3-(4-methylphenyl)-7-(4-fluorophenyl)-pyrazolo[1,5-a]pyrimidin-5-yl)pyrrolidin-2-yl)methanol] | 450
2 | COCc1nn2c(-c3cccc(Cl)c3)cc(N3CCC[C@H]3CO)nc2c1-c1ccc(OC)cc1 [Example 230] | 18
3 | CCOc1ccc(-c2c(C)nn3c(-c4cc(F)cc(F)c4)cc(N4CCC[C@H]4CO)nc23)cc1 [Example 55] | 200
4 | CCOCc1nn2c(-c3cccc(C(F)(F)F)c3)cc(N(C)CCO)nc2c1-c1ccc(OC)cc1 [Example 247] | 16
5 | COCc1nn2c(-c3ccc(F)cc3)cc(N3CCC[C@H]3CO)nc2c1-c1ccc(Cl)cc1 [Example 231] | 7
6 | CCOCc1nn2c(-c3ccc(F)cc3)cc(N3CCC[C@H]3CO)nc2c1-c1ccc(OC)cc1 [Example 209] | 53
7 | Cc1ccc(-c2c(C)nn3c(-c4ccc(C)cc4)cc(N4CCC[C@H]4CO)nc23)cc1 [Example 30] | 160
8 | COc1ccc(-c2c(C)nn3c(-c4ccc(F)c(F)c4)cc(N4CCC[C@H]4CO)nc23)cc1 [Example 38, (S)-{1-[7-(3,4-difluorophenyl)-3-(4-methoxyphenyl)-2-methylpyrazolo[1,5-a]pyrimidin-5-yl)pyrrolidin-2-yl)methanol] | 100
9 | Cc1nn2c(-c3cccc(F)c3)cc(N3CCC[C@H]3CO)nc2c1-c1ccc(Cl)cc1 [Example 3] | 93
10 | CCOCc1nn2c(-c3cccc(C(F)(F)F)c3)cc(N3CCC[C@H]3CO)nc2c1-c1ccc(Cl)cc1 [Example 208] | 7
11 | Cc1nn2c(-c3ccccc3)cc(N3CCC[C@H]3CO)nc2c1-c1ccccc1 [Example 195] | 780
12 | COCc1nn2c(-c3cccc(C(F)(F)F)c3)cc(N3CCC[C@H]3CO)nc2c1-c1ccc2c(c1)OCO2 [Example 238] | 24
13 | Cc1nn2c(-c3ccc(F)cc3)cc(N3CCC[C@H]3CO)nc2c1-c1ccccc1F [Example 87] | 430
14 | Cc1ccc(-c2c(C)nn3c(-c4ccc(Cl)cc4)cc(N4CCC[C@H]4CO)nc23)cc1 [Example 32] | 140
15 | COCc1nn2c(-c3cccc(C(F)(F)F)c3)cc(N3CCC[C@H]3CO)nc2c1-c1ccc(OC)cc1 [Example 221, (S)-{1-[2-methoxymethyl-7-(3-(trifluoromethyl)phenyl)-3-(4-methoxyphenyl)-pyrazolo[1,5-a]pyrimidin-5-yl]pyrrolidin-2-yl}methanol] | 7
16 | CCOCc1nn2c(-c3cccc(F)c3)cc(N3CCC[C@H]3CO)nc2c1-c1ccc(C)cc1 [Example 202] | 5
17 | COc1cccc(-c2cc(N3CCC[C@H]3CO)nc3c(-c4ccc(C)c(F)c4)c(C)nn23)c1 [Example 183] | 130
18 | Cc1nn2c(-c3ccccc3F)cc(N3CCC[C@H]3CO)nc2c1-c1ccc(Cl)cc1 [Example 4] | 360
19 | Cc1ccc(-c2c(C)nn3c(-c4cccc(Cl)c4)cc(N4CCC[C@H]4CO)nc23)cc1 [Example 170] | 160
20 | COc1ccc(-c2c(C)nn3c(-c4cccc(OC)c4)cc(N4CCC[C@H]4CO)nc23)cc1 [Example 41] | 260
21 | COCc1nn2c(-c3cccc(C(F)(F)F)c3)cc(N3CCC[C@H]3CO)nc2c1-c1ccc(Cl)cc1 [Example 233] | 6
22 | COc1ccc(-c2c(C)nn3c(-c4cc(F)cc(F)c4)cc(N4CCC[C@H]4CO)nc23)cc1 [Example 45] | 120
23 | CCc1cccc(-c2cc(N3CCC[C@H]3CO)nc3c(-c4ccc(C)cc4)c(C)nn23)c1 [Example 31] | 130
24 | CCc1nn2c(-c3ccc(F)cc3)cc(N3CCC[C@H]3CO)nc2c1-c1ccc(C)cc1 [Example 198, (S)-(1-(3-(4-methylphenyl)-7-(4-fluorophenyl)-2-ethylpyrazolo[1,5-a]pyrimidin-5-yl)pyrrolidin-2-yl)methanol] | 50
25 | Cc1ccc(-c2c(C)nn3c(-c4cc(F)cc(F)c4)cc(N4CCC[C@H]4CO)nc23)cc1 [Example 35] | 410
26 | CCc1ccc(-c2c(C)nn3c(-c4cccc(C(F)(F)F)c4)cc(N4CCC[C@H]4CO)nc23)cc1 [Example 129] | 73
27 | Cc1cc(-c2c(C)nn3c(-c4ccc(F)cc4)cc(N4CCC[C@H]4CO)nc23)ccc1F [Example 101] | 160
28 | COCc1nn2c(-c3cccc(C(F)(F)F)c3)cc(N(C)CCO)nc2c1-c1ccc(OC)cc1 [Example 257] | 14
29 | Cc1ccccc1-c1cc(N2CCC[C@H]2CO)nc2c(-c3ccc(Cl)cc3)c(C)nn12 [Example 13] | 300
30 | Cc1nn2c(-c3ccccc3)cc(N3CCC[C@H]3CO)nc2c1-c1ccc(Cl)cc1 [Example 5] | 96

same assay, conditions: compound at 3 μM; calcium ion influx in Chem-1 cells expressing human CB1, 1 μM R-(+)-WIN55212-2

Row | SMILES | inhibition at 3 µM [%]
31 | Cc1nn2c(-c3ccccc3)cc(N3CCC[C@@H]3CO)nc2c1-c1ccc(Cl)cc1 [Example 305] | ~5
